Results published in publication PMC9837035 (Nature Communications, 2023).
Where “and” joins values, the source holds several entries; their conditions need not be identical. Equal values may be shown once.

How the values were obtained:
[1] = tested on: BCL11A- or ZBTB7A-knockout HUDEP-2 cells; test: RT-qPCR of BGLT3, β- and γ-globin in BCL11A- or ZBTB7A-knockout HUDEP-2 cells; assay type: cell-based, human
Experimental: Total cellular RNA was prepared using the Tissue Total RNA Mini Kit (FAVORGEN), and cDNA was synthesized using ReverTra Ace Master Mix (TOYOBO). Expression of target genes was analyzed using THUNDERBIRD SYBR qPCR Mix (TOYOBO) on a CFX Connect Real Time System (Bio-Rad). The qPCR data were acquired on CFX Maestro (Bio-Rad). Primers are listed in Supplementary Table 10. GAPDH was used as a reference. Primers were purchased from INTEGRATED DNA TECHNOLOGIES or FASMAC.

[2] = tested on: ZBTB7A occupancy at the β-globin locus; test: ChIP-qPCR with antibody against ZBTB7A in HUDEP-2 cells; assay type: cell-based, human; parameters: ChIP-qPCR, antibody against ZBTB7A: scale not given here; conditions: for occupancy of ZBTB7A: HUDEP-2, 4 days
Experimental: A total of 0.5–1 × 10^6 cells were cross-linked with 1% formaldehyde for 10 min at room temperature and the reaction was quenched with 250 mM glycine. Cross-linked cells were then lysed with buffer 1 (15 mM Tris-HCl (pH 7.5), 60 mM KCl, 15 mM NaCl, 5 mM MgCl2, 0.1 mM EGTA, 300 mM sucrose, […], 1 mM phenylmethanesulfonyl fluoride (PMSF), 0.5% NP40) and incubated on ice for 10 min. After centrifugation, the pellet was re-suspended in buffer 2 (15 mM Tris-HCl (pH 7.5), 60 mM KCl, 15 mM NaCl, 5 mM MgCl2, 0.1 mM EGTA, 1.2 M sucrose, […], 1 mM PMSF). After centrifugation, the pellet was then re-suspended in MNase buffer (50 mM Tris-HCl (pH 7.5), 1 mM CaCl2, 4 mM MgCl2, 320 mM sucrose, 1 mM PMSF) and digested with 100 U of micrococcal nuclease (Takara) at 37 °C for 15 min. After the reaction was quenched with 20 mM EDTA, the supernatants were incubated with antibodies (anti-H3K9me2 (1:100), Abcam, ab1220; anti-H3K9ac (1:100), Active Motif, 39917; Goat anti-IgG (H + L) (1:100), Jackson Immunoresearch; anti-BCL11A (1:100), Novus Biologicals, NB600-261; anti-ZBTB7A (1:100), Thermo Fisher Scientific, eBioscience (13E9); anti-CHD3 (1:100), Novus Biologicals, NB-100-60412; anti-CHD4 (1:100), abcam, ab240640) and Protein A/G PLUS-Agarose (Santa Cruz Biotechnology) overnight at 4 °C. Beads were washed sequentially once with the following buffers: wash buffer A (50 mM Tris-HCl (pH 7.5), 75 mM NaCl, 10 mM EDTA, 0.01% NP40), wash buffer B (50 mM Tris-HCl (pH 7.5), 100 mM NaCl, 10 mM EDTA, 0.01% NP40), wash buffer C (50 mM Tris-HCl (pH 7.5), 175 mM NaCl, 10 mM EDTA, 0.01% NP40). After treatment with proteinase K in buffer 4 (20 mM Tris-HCl (pH 8.0), 10 mM EDTA, 400 mM NaCl, 0.5% SDS) at 56 °C overnight, DNA was purified using the FastGene Gel/PCR Extraction Kit (Nippon Genetics). The samples were analyzed by qPCR. Primers are listed in Supplementary Table 10. ChIP-seq experiments were performed by GENEWIZ. Tracks were visualized using the integrative genome viewer. ChIP-seq analysis were analyzed Cutadapt (V1.9.1) for QC, FastQC (V0.10.1) for QC assessment, Bowtie (V2.1.0) for mapping, strand cross-correlation (SCC) for ChIP quality assessment, MACS2 for peak calling, and R package ChIPpeakAnno for Peak annotated.

SETD2 = biological target: T1, SETD2 (Homo sapiens, UniProt Q9BYW2); test: Radioisotope-based methyltransferase assay (selectivity); assay type: biochemical
T1 construct: purchased Reaction Biology

SET1b = biological target: T2, SET1b (Homo sapiens, UniProt Q9UPS6); test: as above; assay type: biochemical
T2 construct: purchased Reaction Biology

DNMT3b = DNMT3b (Homo sapiens, UniProt Q9UBC3); test: as above; conditions: 1 μM SAM
[3] = BCL11AKO, relative to Parental DMSO = 1, replicate values
[4] = ZBTB7AKO, relative to Parental DMSO = 1, replicate values

T1 sequence (Q9BYW2 whole entry): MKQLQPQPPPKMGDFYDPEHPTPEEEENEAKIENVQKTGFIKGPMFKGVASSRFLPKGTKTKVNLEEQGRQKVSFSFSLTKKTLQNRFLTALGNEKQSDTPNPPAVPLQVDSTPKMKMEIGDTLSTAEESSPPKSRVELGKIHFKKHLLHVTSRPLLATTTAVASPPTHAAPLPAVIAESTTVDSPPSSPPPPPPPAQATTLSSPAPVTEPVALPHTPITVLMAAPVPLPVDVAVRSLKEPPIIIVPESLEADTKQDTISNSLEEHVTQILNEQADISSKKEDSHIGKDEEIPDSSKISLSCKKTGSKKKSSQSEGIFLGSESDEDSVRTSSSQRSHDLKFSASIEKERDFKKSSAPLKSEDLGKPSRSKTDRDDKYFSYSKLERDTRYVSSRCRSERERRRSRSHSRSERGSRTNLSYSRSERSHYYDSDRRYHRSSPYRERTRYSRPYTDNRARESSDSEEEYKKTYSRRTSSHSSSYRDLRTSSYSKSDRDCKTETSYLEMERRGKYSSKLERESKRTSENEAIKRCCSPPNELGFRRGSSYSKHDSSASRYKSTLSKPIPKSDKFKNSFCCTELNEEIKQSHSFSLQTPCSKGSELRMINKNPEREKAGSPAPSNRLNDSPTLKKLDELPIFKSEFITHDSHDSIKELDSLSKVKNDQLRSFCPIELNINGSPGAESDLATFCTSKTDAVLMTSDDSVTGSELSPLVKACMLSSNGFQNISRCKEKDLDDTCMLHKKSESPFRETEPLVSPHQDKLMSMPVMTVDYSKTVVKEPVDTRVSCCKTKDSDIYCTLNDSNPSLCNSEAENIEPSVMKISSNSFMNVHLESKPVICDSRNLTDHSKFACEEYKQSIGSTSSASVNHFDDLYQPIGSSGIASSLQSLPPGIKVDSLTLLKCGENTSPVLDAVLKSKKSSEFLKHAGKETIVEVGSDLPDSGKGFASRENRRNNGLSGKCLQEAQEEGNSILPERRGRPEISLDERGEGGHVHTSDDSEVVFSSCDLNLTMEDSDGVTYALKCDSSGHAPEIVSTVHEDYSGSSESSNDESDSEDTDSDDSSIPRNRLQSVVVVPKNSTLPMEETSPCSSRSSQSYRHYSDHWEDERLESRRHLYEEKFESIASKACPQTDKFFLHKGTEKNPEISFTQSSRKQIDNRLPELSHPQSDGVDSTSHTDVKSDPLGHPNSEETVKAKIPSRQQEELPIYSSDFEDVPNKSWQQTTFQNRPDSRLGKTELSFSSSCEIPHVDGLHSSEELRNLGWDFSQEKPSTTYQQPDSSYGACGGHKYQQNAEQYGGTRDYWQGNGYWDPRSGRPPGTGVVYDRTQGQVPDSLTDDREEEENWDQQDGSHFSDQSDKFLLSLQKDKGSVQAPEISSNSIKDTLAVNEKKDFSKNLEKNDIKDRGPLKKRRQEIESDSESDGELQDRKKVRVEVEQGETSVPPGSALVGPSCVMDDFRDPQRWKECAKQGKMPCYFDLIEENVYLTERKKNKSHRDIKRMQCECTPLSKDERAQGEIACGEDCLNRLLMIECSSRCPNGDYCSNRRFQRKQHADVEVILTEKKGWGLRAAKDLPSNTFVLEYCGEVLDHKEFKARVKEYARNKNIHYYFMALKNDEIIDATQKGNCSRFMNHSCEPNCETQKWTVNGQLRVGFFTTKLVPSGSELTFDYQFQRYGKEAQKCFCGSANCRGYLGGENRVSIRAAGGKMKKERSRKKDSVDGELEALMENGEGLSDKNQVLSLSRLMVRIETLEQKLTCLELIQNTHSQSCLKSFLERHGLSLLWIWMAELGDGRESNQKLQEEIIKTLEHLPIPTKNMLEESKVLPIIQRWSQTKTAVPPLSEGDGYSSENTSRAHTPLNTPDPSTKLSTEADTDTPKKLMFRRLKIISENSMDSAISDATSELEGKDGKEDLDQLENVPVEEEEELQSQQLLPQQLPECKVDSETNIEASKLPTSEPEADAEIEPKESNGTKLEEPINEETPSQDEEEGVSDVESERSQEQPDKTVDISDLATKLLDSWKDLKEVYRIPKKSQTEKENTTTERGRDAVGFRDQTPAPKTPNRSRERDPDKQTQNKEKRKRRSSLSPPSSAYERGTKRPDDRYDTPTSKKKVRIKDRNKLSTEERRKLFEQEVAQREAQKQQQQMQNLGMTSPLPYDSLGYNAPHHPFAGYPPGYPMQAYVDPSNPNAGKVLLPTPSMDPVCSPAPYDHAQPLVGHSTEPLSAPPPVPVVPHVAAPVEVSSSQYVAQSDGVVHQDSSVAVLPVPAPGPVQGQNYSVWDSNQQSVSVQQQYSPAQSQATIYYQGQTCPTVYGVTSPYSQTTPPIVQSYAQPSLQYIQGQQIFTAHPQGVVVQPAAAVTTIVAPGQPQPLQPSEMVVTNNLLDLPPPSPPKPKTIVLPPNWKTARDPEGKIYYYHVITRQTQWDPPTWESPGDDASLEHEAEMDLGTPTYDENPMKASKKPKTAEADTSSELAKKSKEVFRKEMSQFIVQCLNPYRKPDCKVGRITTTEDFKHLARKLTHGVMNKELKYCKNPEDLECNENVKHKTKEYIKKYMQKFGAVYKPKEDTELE

NC(=O)NO [Hydroxyurea, hydroxyurea]
β-globin in hydroxyurea-treated BCL11A-knockout HUDEP-2 cells [1, 3]: 0.8331 and 0.6286 and 0.8387 | γ-globin in hydroxyurea-treated BCL11A-knockout HUDEP-2 cells [1, 3]: 30.3873 and 19.1624 and 29.0192 | BGLT3 expression ([1]; Left panel, BCL11AKO HUDEP-2 cells treated with hydroxyurea, Parental DMSO = 1, 3 replicates): 4.086 and 4.522 and 3.744 | BGLT3 expression ([1]; Left panel, ZBTB7AKO HUDEP-2 cells treated with hydroxyurea, Parental DMSO = 1, 3 replicates): 7.409 and 8.146 and 6.041 | BGLT3 expression ([1]; Right panel, BCL11AKO HUDEP-2 cells treated with hydroxyurea, DMSO of the same cells = 1, 3 replicates): 0.9046 and 1.002 and 0.9124 | BGLT3 expression ([1]; Right panel, ZBTB7AKO HUDEP-2 cells treated with hydroxyurea, DMSO of the same cells = 1, 3 replicates): 1.218 and 1.432 and 1.28 | β-globin in hydroxyurea-treated ZBTB7A-knockout HUDEP-2 cells [1, 4]: 0.1643 and 0.09952 and 0.1527 | γ-globin in hydroxyurea-treated ZBTB7A-knockout HUDEP-2 cells [1, 4]: 16.1366 and 9.002 and 13.1897 | ChIP-qPCR, antibody against ZBTB7A ([2]; BGLT3 locus, HUDEP-2 cells treated with hydroxyurea, replicates 1a-3b): 0.2555 and 0.2878 and 0.489 and 0.1677 and 0.3852 and 0.1554 | ChIP-qPCR, antibody against ZBTB7A ([2]; HS1, HUDEP-2 cells treated with hydroxyurea, replicates 1a-3b): 0.1321 and 0.1347 and 0.8135 and 0.9678 and 0.3385 and 0.3161 | ChIP-qPCR, antibody against ZBTB7A ([2]; HS2, HUDEP-2 cells treated with hydroxyurea, replicates 1a-3b): 0.5755 and 1.852 and 0.7582 and 2.507 and 0.9285 and 0.344 | ChIP-qPCR, antibody against ZBTB7A ([2]; HS3, HUDEP-2 cells treated with hydroxyurea, replicates 1a-3b): 3.3 and 2.712 and 3.199 and 3.147 and 3.201 and 2.452 | ChIP-qPCR, antibody against ZBTB7A ([2]; HS4, HUDEP-2 cells treated with hydroxyurea, replicates 1a-3b): 0.5937 and 0.6906 and 0.5556 and 0.0004431 and 0.6456 and 0.709 | occupancy of ZBTB7A [2]: unchanged | ChIP-qPCR, antibody against ZBTB7A ([2]; β-globin promoter, HUDEP-2 cells treated with hydroxyurea, replicates 1a-3b): 0.3506 and 0.4318 and 0.349 and 0.2415 and 0.313 and 0.6542 | ChIP-qPCR, antibody against ZBTB7A ([2]; γ-globin promoter, HUDEP-2 cells treated with hydroxyurea, replicates 1a-3b): 0.3068 and 0.4102 and 0.3595 and 0.2786 and 0.238 and 0.2672 | ChIP-qPCR, antibody against ZBTB7A ([2]; δ-globin promoter, HUDEP-2 cells treated with hydroxyurea, replicates 1a-3b): 0.2368 and 0.1088 and 0.2161 and 0.2308 and 0.337 and 0.2535

Cc1c(C(=O)NC(CCC2CC2)C(=O)Nc2ccc(C#N)cc2)[nH]c2c1C(=O)CC(C)(C)C2 (stereo not shown) [RK-701]
BGLT3 expression ([1]; BCL11A KO HUDEP-2 cells treated with RK-701, parental DMSO = 1, replicates 1a-3b): 6.941 and 5.75 and 6.485 and 4.87 and 5.182 and 3.691 | BGLT3 expression ([1]; BCL11A knockout HUDEP-2): could no longer increase BGLT3 expression | BGLT3 expression ([1]; ZBTB7A KO HUDEP-2 cells treated with RK-701, parental DMSO = 1, replicates 1a-3b): 4.7282 and 5.8001 and 5.631 and 4.239 and 5.932 and 4.543 | BGLT3 expression ([1]; ZBTB7A knockout HUDEP-2): prevented RK-701 from increasing BGLT3 expression | IC50 (SETD2; SETD2, 1 μM SAM): > 100 µM | IC50 (SETD2; SETD2, RK-701 in duplicate): > 100 µM | ChIP-qPCR, antibody against ZBTB7A ([2]; BGLT3 locus, HUDEP-2 cells treated with RK-701, replicates): 0.4785 and 0.7839 and 0.6066 and 0.47 and 0.614 and 0.4023 | ChIP-qPCR, antibody against ZBTB7A ([2]; HS1, HUDEP-2 cells treated with RK-701, replicates): 0.3678 and 0.05637 and 0.7128 and 0.4479 and 0.1475 and 0.1331 | ChIP-qPCR, antibody against ZBTB7A ([2]; HS2, HUDEP-2 cells treated with RK-701, replicates): 1.5097 and 1.657 and 5.746 and 3.531 and 2.263 and 8.084 and 5.171 | ChIP-qPCR, antibody against ZBTB7A ([2]; HS3, HUDEP-2 cells treated with RK-701, replicates): 0.5878 and 1.255 and 2.352 and 2.616 and 1.402 and 1.245 and 2.743 | ChIP-qPCR, antibody against ZBTB7A ([2]; HS4, HUDEP-2 cells treated with RK-701, replicates): 0.4061 and 0.5382 and 0.8901 and 0.4009 and 0.2486 | occupancy of ZBTB7A [2]: significantly reduced | ChIP-qPCR, antibody against ZBTB7A ([2]; β-globin promoter, HUDEP-2 cells treated with RK-701, replicates): 0.04529 and 0.1645 and 0.1359 and 0.07664 and 0.1559 and 0.07017 and 0.04448 and 0.1674 and 0.1136 | ChIP-qPCR, antibody against ZBTB7A ([2]; γ-globin promoter, HUDEP-2 cells treated with RK-701, replicates): 0.04733 and 0.01872 and 0.01192 and 0.1001 and 0.03782 and 0.06607 and 0.08612 | ChIP-qPCR, antibody against ZBTB7A ([2]; δ-globin promoter, HUDEP-2 cells treated with RK-701, replicates): 0.02578 and 0.1044 and 0.02059 and 0.06153 and 0.0851 and 0.07628 | IC50 (SET1b; 1 μM SAM): 48.6 µM | IC50 (SET1b; RK-701 in duplicate): 47.6 µM and 49.6 µM | IC50 (DNMT3b): > 100 µM

Nc1ncnc2c1ncn2[C@@H]1O[C@H](CSCC[C@H](N)C(=O)O)[C@@H](O)[C@H]1O [SAH, S-(5'-Adenosyl)-L-homocysteine, reference compound]
IC50 (SETD2; SETD2, 1 μM SAM): 5.3 µM | IC50 (SETD2; SETD2, RK-701 in duplicate): 5.31 µM | IC50 (SET1b; 1 μM SAM): 5.3 µM | IC50 (SET1b; RK-701 in duplicate): 5.3 µM | IC50 (DNMT3b): 0.11 µM
